Laboratory results as given in patent publication US12629452B2, “Cranial suture regeneration” (University of Southern California, priority 2021, dated 2026).

Test system: suture mesenchymal cells
Test: Western blot of Runx2 and OPN (osteogenic differentiation)
Assay type: cell-based, mouse
Settings: 20 μM Wnt agonist 1 or 100 nM LY2090314, one or two weeks, vs vehicle
Description: Suture mesenchymal cells from one-month-old C57BL/6J mice were cultured with 20 μM Wnt agonist 1 (Selleck, S8178) or 100 nM LY2090314 (Selleck, S7063) for one or two weeks in αMEM. Medium was changed every other day. Total protein was extracted using a solution of loading buffer (Cell Signaling Technology, 7723S), protease inhibitor (Thermo Fisher Scientific, 1861278) and DTT (Cell Signaling Technology, 7723S), then separated by 10% SDS-PAGE and transferred to PVDF membranes (Millipore, ISEQ00005). Membranes were blocked with 5% non-fat dry milk dissolved in TBST for 2 hours at room temperature with gentle shaking, and then incubated with primary antibodies: anti-Runx2 (Cell signaling technology 12556, 1:1000), anti-OPN (Abcam ab63856, 1:500), and anti-βactin (Abcam ab20272, 1:1000) at 4° C. overnight followed by corresponding horseradish-peroxidase (HRP)-conjugated secondary antibodies. Protein expression was detected by Bio-Rad ChemiDoc Touch (Bio-Rad) and intensities of bands were quantitated by Image J software.

O=C1NC(=O)C(c2cnc3ccccn23)=C1c1cn2c3c(cc(F)cc13)CN(C(=O)N1CCCCC1)CC2 [LY2090314]
OPN expression level: significantly increased | Runx2 expression level: significantly increased

COc1cccc(-c2cc(NCc3ccc4c(c3)OCO4)nc(N)n2)c1 [Wnt agonist 1]
OPN expression level: significantly increased | Runx2 expression level: significantly increased
